From US8853424B2 (Japan Science and Technology Agency, priority 2008, dated 2014) come the findings set out here.

Assay [1] deals with Truncated N-terminal huntington 150 Q-EGFP-Neuron 2a cells. The experiment in a line: Measurement of x-Fold (polyglutamine aggregation inhibitory activity). The assay is classed as cell-based. As to the method: In the present invention, the polyglutamine aggregation inhibitory activity (x-Fold) can be measured, for example, by the method described in the Example.
The number of the aggregated cells, and the total number of cells were counted by Array Scan V T1 (manufactured by Cellomics, Pittuburg, USA), and the ratio of the aggregated cells to the total number of cells was determined (x-Fold). […]

The subject of a further assay is transglutaminase (TGase). The experiment in a line: Measurement of TG (TGase inhibitory activity, monodansyl cadaverine / N,N-dimethylcasein fluorescence, FDSS 3000). The assay is classed as biochemical. The procedure, abridged: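 Compound (1 μL of 10 mM stock) added to 0.1 mL reaction: 100 mM HEPES-NaOH pH 7.5, 1 mM CaCl2, 20 μM monodansyl cadaverine, 0.05 mg/mL N,N-dimethylcasein, 5 μg/mL TGase. Rate of fluorescence change at 340 nm measured; DMSO control set to 100; TG50 is the concentration halving activity.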

Setting [2] is: polyglutamine aggregation inhibitory activity, Table 1.
Setting [3] is: ratio of aggregated cells to total number of cells, compound 20 μM, 20 hr, almost 1 without compound, smaller = stronger inhibition.
Setting [4] is: TGase activity with compound (10 mM, 1 μL in 0.1 ml enzyme reaction solution), DMSO control taken as 100.
The mark [5] stands for this setting: TGase inhibitory activity value, Table 1.

Consider `CNCCOB(c1ccccc1)c1ccc(Oc2ccc(B(OCCNC)c3ccc(COCOC)cc3)cc2)cc1` [Example 168, (4-(phenyl-N-methylaminoethoxyboryl)phenyl)-(4′-(methoxymethoxymethylphenyl-N-methylaminoethoxyboryl)phenyl)ether], for which the x-Fold in assay [1] (setting [2]) and in assay [1] (setting [3]) was 0.72 in each case. The “TGase activity remaining (% of DMSO control = 100)” value with transglutaminase (TGase) (setting [4]) and with transglutaminase (TGase) (setting [5]) was 35 each time.
For the compound `Cc1ccc(Cl)cc1B(O)c1cc(Cl)ccc1C` [Example 171, di(3-chloro-6-methylphenyl)borinic acid], in assay [1] (setting [3]), the x-Fold was determined as 0.71. The “TGase activity remaining (% of DMSO control = 100)” value in the assay on transglutaminase (TGase) (setting [4]) came to 98.
Consider `c1ccc(B2OCCN3CCN(CCOB(c4ccccc4)c4cccc(c4)COCc4cccc2c4)CC3)cc1` [Example 173, (3,3′-(phenylpiperazino-O,O-ethoxyboryl)benzyl)ether], for which the x-Fold in assay [1] (setting [2]) and in assay [1] (setting [3]) was 1.06 each time. For the same compound, the “TGase activity remaining (% of DMSO control = 100)” value in the assay on transglutaminase (TGase) (setting [4]) and in the assay on transglutaminase (TGase) (setting [5]) was 122 each time.
On to `NCC(N)C(=O)OB(c1ccccc1)c1ccccc1` (stereo not shown) [Example 174, diphenyl(2,3-diaminopropionate-O,N)borane], for which the x-Fold in assay [1] (polyglutamine aggregation inhibitory activity, Table 1, listed as 2031-4) came to 0.99; in assay [1] (setting [3]) it was 0.99. In addition, the “TGase activity remaining (% of DMSO control = 100)” value in the assay with transglutaminase (TGase) (setting [4]) was 103; in the assay with transglutaminase (TGase) (TGase inhibitory activity value, Table 1, listed as 2031-4), 103.
As for `CCN(CC)CC.CN(C)c1ccc2c(-c3ccc(NC(=S)NCC(N)C(=O)OB(c4ccccc4)c4ccccc4)cc3C(=O)[O-])c3ccc(=[N+](C)C)cc-3oc2c1` (stereo not shown) [Example 175, diphenyl(tetramethylrhodamine 2,3-diaminopropionate-O,N)borane], the x-Fold in assay [1] (setting [2]) and in assay [1] (setting [3]) was 0.89 throughout. In addition, the “TGase activity remaining (% of DMSO control = 100)” value in the assay on transglutaminase (TGase) (setting [4]) and in the assay on transglutaminase (TGase) (setting [5]) was 5 in each case.
Regarding `CCN(CC)CC.CN(C)c1ccc2c(-c3ccc(NC(=S)NCCCCC(N)C(=O)OB(c4ccccc4)c4ccccc4)cc3C(=O)[O-])c3ccc(=[N+](C)C)cc-3oc2c1` (stereo not shown) [Example 176, diphenyl(tetramethylrhodamine 2,6-diaminocapronate-O,N)borane], the x-Fold in assay [1] (setting [2]) and in assay [1] (setting [3]) was 1.06 throughout. Also, the “TGase activity remaining (% of DMSO control = 100)” value in the assay with transglutaminase (TGase) (setting [4]) and in the assay with transglutaminase (TGase) (setting [5]) was 47 each time.
For `NCCC(N)C(=O)OB(c1ccccc1)c1ccccc1` (stereo not shown) [Example 178], the x-Fold in assay [1] (polyglutamine aggregation inhibitory activity, Table 1, listed as 2039) worked out at 0.89; in assay [1] (setting [3]), 0.89. In addition, the “TGase activity remaining (% of DMSO control = 100)” value turned out to be 142 in the assay on transglutaminase (TGase) (setting [4]) and 142 in the assay with transglutaminase (TGase) (TGase inhibitory activity value, Table 1, listed as 2039).
In the case of `NCCCC(N)C(=O)OB(c1ccccc1)c1ccccc1` (stereo not shown) [Example 179, diphenyl(2,5-diaminopentanate-O,N)borane], the x-Fold in assay [1] (polyglutamine aggregation inhibitory activity, Table 1, listed as 2044) was 0.99; in assay [1] (setting [3]) it was 0.99. The “TGase activity remaining (% of DMSO control = 100)” value stood at 127 in the assay on transglutaminase (TGase) (setting [4]) and 127 in the assay on transglutaminase (TGase) (TGase inhibitory activity value, Table 1, listed as 2044).
For the compound `Cc1ccc(B(OC(=O)c2ccccc2N)c2ccc(C)c(Cl)c2)cc1Cl` [Example 180, di(3-chloro-4-methylphenyl)(anthranate-O,N)borane], the x-Fold in assay [1] (setting [2]) and in assay [1] (setting [3]) was 0.98 throughout. Moreover, the “TGase activity remaining (% of DMSO control = 100)” value in the assay on transglutaminase (TGase) (setting [4]) and in the assay with transglutaminase (TGase) (setting [5]) was 35 throughout.
Regarding `NCCOB(c1ccc(C(F)(F)F)cc1)c1ccc(C(F)(F)F)cc1` [Example 181, di(trifluoromethylphenyl) 2-aminoethylborinate], the x-Fold in assay [1] (setting [3]) was found to be 0.69. Besides, in the assay with transglutaminase (TGase) (setting [4]), the “TGase activity remaining (% of DMSO control = 100)” value is 54.
`Cc1ccc(B(OC(=O)C(N)CCC(N)=O)c2ccc(C)c(Cl)c2)cc1Cl` (stereo not shown) [Example 182, di(3-chloro-4-methylphenyl)(glutaminate-O,N)borane]: the x-Fold in assay [1] (setting [2]) and in assay [1] (setting [3]) was 1.01 each time. Moreover, the “TGase activity remaining (% of DMSO control = 100)” value in the assay on transglutaminase (TGase) (setting [4]) and with transglutaminase (TGase) (setting [5]) was 137 throughout.
As to `CCCCB(CCCC)OC(=O)C(N)CC(N)=O` (stereo not shown) [Example 183, dibutyl(asparagine-O,N)borane], the x-Fold in assay [1] (setting [2]) and in assay [1] (setting [3]) was 1.02 each time. Further, the “TGase activity remaining (% of DMSO control = 100)” value with transglutaminase (TGase) (setting [4]) and in the assay with transglutaminase (TGase) (setting [5]) was 91 throughout.
Take `c1ccc(B(OCc2ccccn2)c2ccc(COCc3ccc(B(OCc4ccccn4)c4ccccc4)cc3)cc2)cc1` [Example 184, di(4-(phenyl-2-pyridylmethoxyboryl)benzyl)ether]: the x-Fold in assay [1] (setting [2]) and in assay [1] (setting [3]) was 0.95 throughout. Moreover, the “TGase activity remaining (% of DMSO control = 100)” value in the assay on transglutaminase (TGase) (setting [4]) and in the assay on transglutaminase (TGase) (setting [5]) was 94 throughout.
Take `OB(Cc1ccc(OCc2ccc(B(O)c3ccccc3)cc2)cc1)Cc1ccc(OCc2ccc(B(O)c3ccccc3)cc2)cc1` [Example 187, bis((4,4′-phenylhydroxyboryl)benzyloxybenzyl)hydroxyborane]: the x-Fold in assay [1] (setting [2]) and in assay [1] (setting [3]) was 0.97 throughout. Besides, the “TGase activity remaining (% of DMSO control = 100)” value in the assay on transglutaminase (TGase) (setting [4]) and in the assay with transglutaminase (TGase) (setting [5]) was 106 each time.
For `CCCNCCOB(c1ccc(C(F)(F)F)cc1)c1ccc(C(F)(F)F)cc1` [Example 188, di(trifluoromethylphenyl) 2-propylaminoethylborinate], the x-Fold in assay [1] (setting [3]) worked out at 0.98. Besides, the “TGase activity remaining (% of DMSO control = 100)” value in the assay on transglutaminase (TGase) (setting [4]) was 91.
Regarding `NCCOB(c1ccccc1)c1ccc(COCc2ccc(B(OCCN)c3ccc(COCc4ccc(B(OCCN)c5ccccc5)cc4)cc3)cc2)cc1` [Example 189, bis((4,4′-phenylaminoethoxyboryl)benzyloxybenzyl)aminoethoxyborane], the x-Fold in assay [1] (setting [2]) and in assay [1] (setting [3]) was 0.94 in each case. The “TGase activity remaining (% of DMSO control = 100)” value in the assay with transglutaminase (TGase) (setting [4]) and in the assay on transglutaminase (TGase) (setting [5]) was 119 each time.
For `FC(F)(F)c1ccc(C(OB(c2ccccc2)c2ccc(COCc3ccc(B(OC(c4ccc(C(F)(F)F)cc4)c4ccccn4)c4ccc(COCc5ccc(B(OC(c6ccc(C(F)(F)F)cc6)c6ccccn6)c6ccccc6)cc5)cc4)cc3)cc2)c2ccccn2)cc1` (stereo not shown) [Example 192, bis((4,4′-phenyl 2-pyridyl-4-trifluoromethylphenylmethoxyboryl)benzyloxybenzyl) 2-pyridyl-4-trifluoromethyl phenylmethoxyborane], the x-Fold in assay [1] (setting [2]) and in assay [1] (setting [3]) was 0.95 each time. Also, the “TGase activity remaining (% of DMSO control = 100)” value in the assay with transglutaminase (TGase) (setting [4]) and in the assay on transglutaminase (TGase) (setting [5]) was 102 each time.
`NC(=O)C1NCCNC1C(=O)OB(c1ccccc1)c1ccccc1` (stereo not shown) [Example 193, diphenyl(2-piperazine-3-carboxyamide-carboxy)borane]: the x-Fold in assay [1] (setting [2]) and in assay [1] (setting [3]) was 1.03 in each case. The “TGase activity remaining (% of DMSO control = 100)” value in the assay on transglutaminase (TGase) (setting [4]) and in the assay on transglutaminase (TGase) (setting [5]) was 92 in each case.
For the compound `CSCCC(N)C(=O)OB(c1ccccc1)c1ccccc1` (stereo not shown) [Example 194, diphenyl(methionate-O,N)borane], the x-Fold in assay [1] (setting [2]) and in assay [1] (setting [3]) was 1.03 throughout. Also, the “TGase activity remaining (% of DMSO control = 100)” value with transglutaminase (TGase) (setting [4]) and in the assay with transglutaminase (TGase) (setting [5]) was 106 throughout.
With `c1ccc(B(ON2CCCCC2)c2cccc(Oc3cccc(B(ON4CCCCC4)c4ccccc4)c3)c2)cc1` [Example 195, di(phenyl 3-piperidinooxyborylphenyl)ether], the x-Fold in assay [1] (setting [2]) and in assay [1] (setting [3]) was 0.77 throughout. Besides, the “TGase activity remaining (% of DMSO control = 100)” value in the assay on transglutaminase (TGase) (setting [4]) and with transglutaminase (TGase) (setting [5]) was 115 throughout.
Turning to `c1ccc(B2OCCN3CCN(CCOB(c4ccccc4)c4ccc(cc4)Oc4ccc2cc4)CC3)cc1` [Example 196, 4,4′-(phenylpiperazino-O,O-ethoxyboryl)phenylether], the x-Fold in assay [1] (setting [2]) and in assay [1] (setting [3]) was 0.90 in each case. The “TGase activity remaining (% of DMSO control = 100)” value with transglutaminase (TGase) (setting [4]) and in the assay with transglutaminase (TGase) (setting [5]) was 117 throughout.
Consider `CN(C)CCOB(c1ccccc1)c1ccc(COCc2ccc(B(OCCN(C)C)c3ccccc3)cc2)cc1` [Example 198, bis(4,4′-(phenyldimethylaminoethoxyboryl)benzyl)ether], for which the x-Fold in assay [1] (polyglutamine aggregation inhibitory activity, Table 1, listed as 3003) stood at 0.8; in assay [1] (setting [3]), 0.8. Also, the “TGase activity remaining (% of DMSO control = 100)” value was determined as 28 in the assay on transglutaminase (TGase) (setting [4]) and 28 in the assay on transglutaminase (TGase) (TGase inhibitory activity value, Table 1, listed as 3003).
As for `c1ccc(CNCCOB(c2ccccc2)c2cccc(COCc3cccc(B(OCCNCc4ccccc4)c4ccccc4)c3)c2)cc1` [Example 199, bis(3,3′-(phenylbenzylaminoethoxyboryl)benzyl)ether], the x-Fold in assay [1] (setting [2]) and in assay [1] (setting [3]) was 0.90 each time. Also, the “TGase activity remaining (% of DMSO control = 100)” value with transglutaminase (TGase) (setting [4]) and in the assay with transglutaminase (TGase) (setting [5]) was 3 each time.
`Cc1c(Cl)cccc1B(O)c1cccc(Cl)c1C` [Example 200, di(3-chloro-2-methylphenyl)borinic acid]: the x-Fold in assay [1] (setting [3]) is on record as 0.92. Further, the “TGase activity remaining (% of DMSO control = 100)” value in the assay with transglutaminase (TGase) (setting [4]) came to 100.
